According to paper doi:10.1101/2021.09.28.462164v1 (biorxiv, 2021):
Changes are numbered by the printed parent chain.

Assays:
Format in all cases: cell-based
Conditions in all cases: 30 C; extract in 50 mM Tris-HCl pH 7.5; described as competitive inhibitor
[1] = target: T1, HsHK2 (Homo sapiens, UniProt P52789)
T1 sequence (P52789 1-917): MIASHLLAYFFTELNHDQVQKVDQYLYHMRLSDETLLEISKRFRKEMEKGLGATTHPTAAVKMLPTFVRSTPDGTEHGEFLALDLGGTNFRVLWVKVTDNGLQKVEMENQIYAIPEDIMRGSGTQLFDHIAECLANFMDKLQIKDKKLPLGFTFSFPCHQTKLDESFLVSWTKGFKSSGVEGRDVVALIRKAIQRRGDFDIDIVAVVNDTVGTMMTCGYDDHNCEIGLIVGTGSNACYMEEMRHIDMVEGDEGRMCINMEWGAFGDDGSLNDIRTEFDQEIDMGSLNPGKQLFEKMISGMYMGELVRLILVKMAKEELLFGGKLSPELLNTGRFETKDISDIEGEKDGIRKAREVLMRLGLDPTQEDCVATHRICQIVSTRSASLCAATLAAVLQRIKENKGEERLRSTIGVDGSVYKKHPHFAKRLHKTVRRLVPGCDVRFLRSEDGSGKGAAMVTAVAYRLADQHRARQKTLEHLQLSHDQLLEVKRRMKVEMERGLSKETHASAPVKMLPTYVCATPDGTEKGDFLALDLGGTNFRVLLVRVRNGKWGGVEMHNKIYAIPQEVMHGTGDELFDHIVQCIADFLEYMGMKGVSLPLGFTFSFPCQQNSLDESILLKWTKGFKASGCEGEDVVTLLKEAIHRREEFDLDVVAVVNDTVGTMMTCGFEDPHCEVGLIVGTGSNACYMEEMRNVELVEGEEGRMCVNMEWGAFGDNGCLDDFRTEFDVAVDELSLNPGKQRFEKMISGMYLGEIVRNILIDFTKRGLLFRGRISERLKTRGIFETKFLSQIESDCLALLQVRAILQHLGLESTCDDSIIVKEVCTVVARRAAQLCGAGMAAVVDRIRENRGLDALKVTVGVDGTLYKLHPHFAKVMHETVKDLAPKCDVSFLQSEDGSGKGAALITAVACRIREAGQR

[2] = target: T2, HsHK1 (Homo sapiens, UniProt P19367, G679A)
T2 sequence (P19367 1-917 G679A): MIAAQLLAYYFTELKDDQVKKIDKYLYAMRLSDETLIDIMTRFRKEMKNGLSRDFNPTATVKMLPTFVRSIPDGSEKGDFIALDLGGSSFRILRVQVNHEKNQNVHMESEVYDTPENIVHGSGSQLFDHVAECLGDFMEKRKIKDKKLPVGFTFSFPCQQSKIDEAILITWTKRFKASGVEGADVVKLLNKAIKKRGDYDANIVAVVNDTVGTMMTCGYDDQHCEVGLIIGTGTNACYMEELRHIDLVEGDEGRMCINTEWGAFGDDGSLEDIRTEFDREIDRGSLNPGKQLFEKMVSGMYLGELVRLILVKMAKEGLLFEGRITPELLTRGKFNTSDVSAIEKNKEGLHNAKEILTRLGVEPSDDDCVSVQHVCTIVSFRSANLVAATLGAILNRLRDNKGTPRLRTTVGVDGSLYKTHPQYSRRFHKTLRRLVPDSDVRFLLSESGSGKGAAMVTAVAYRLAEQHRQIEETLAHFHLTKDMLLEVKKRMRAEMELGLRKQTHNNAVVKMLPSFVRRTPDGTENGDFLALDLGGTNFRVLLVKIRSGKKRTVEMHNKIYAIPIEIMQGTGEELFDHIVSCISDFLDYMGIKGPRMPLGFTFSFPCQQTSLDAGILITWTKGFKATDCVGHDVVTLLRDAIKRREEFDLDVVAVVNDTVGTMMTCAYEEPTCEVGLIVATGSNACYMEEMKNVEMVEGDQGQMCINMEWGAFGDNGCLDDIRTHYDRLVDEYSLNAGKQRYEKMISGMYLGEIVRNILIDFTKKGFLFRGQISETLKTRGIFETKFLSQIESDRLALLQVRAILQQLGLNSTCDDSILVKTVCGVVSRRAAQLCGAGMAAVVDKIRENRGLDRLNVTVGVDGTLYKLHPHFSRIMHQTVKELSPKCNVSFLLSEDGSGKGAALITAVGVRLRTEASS

[3] = target: T3, HsHK2 (Homo sapiens, UniProt P52789, L776F)
T3 sequence (P52789 1-917 L776F): T1 sequence (P52789 1-917) with L776F

[4] = target: T4, HsHK1 (Homo sapiens, UniProt P19367)
T4 sequence (P19367 1-917): T2 sequence (P19367 1-917 G679A) with A679G

IC50 [1]: 87 ± 21 µM
IC50 [2]: 320 ± 100 µM
IC50 [3]: 260 ± 200 µM
IC50 [4]: 38 ± 15 µM
SMILES: O=P(O)(O)OC[C@H]1OC(O)[C@H](O)[C@@H](O)[C@@H]1O (stereo partly shown) [glucose-6-phosphate]
